In patent publication US7282507B2, “Indole derivatives as selective androgen receptor modulators (SARMS)” (Janssen Pharmaceutica N.V., priority 2004, dated 2007):
“And” between values parts separate entries of the source, which are not always exact repeats. Equal values may be shown once. Read-outs that look alike come from different tables or passages of the source.

Assays:
[1] = molecular target: T1, androgen receptor LBD (Panvera) (Rattus norvegicus, UniProt P15207); experiment: Androgen Receptor Filtration Binding Assay (PANVERA); conditions: read-out: IC50 (nM), Androgen Receptor Binding (Panvera)
T1 construct: 5 pmol androgen receptor LBD (Panvera); purchased Panvera
T1 sequence (P15207 651-882 limits assumed): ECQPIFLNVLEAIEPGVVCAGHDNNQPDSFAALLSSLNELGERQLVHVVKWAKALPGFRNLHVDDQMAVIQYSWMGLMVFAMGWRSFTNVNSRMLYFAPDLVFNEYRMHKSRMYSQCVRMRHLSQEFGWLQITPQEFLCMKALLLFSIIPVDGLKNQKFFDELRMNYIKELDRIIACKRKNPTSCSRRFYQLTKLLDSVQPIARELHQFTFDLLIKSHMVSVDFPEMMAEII
Description: The assay was run on a 96 well plate with each well filled with a total reaction volume 150 μL, of a solution containing 5 pmol androgen receptor LBD (Panvera) or 30 μL of freshly prepared rat cytosol, 0.5 nM [^3H] […] (TED buffer contains 10 mM Tris.HCl pH 7.4, 1 mM sodium molybdate, 1.5 mM EDTA, 1 mM DTT and 10% (v/v) glycerol.)
On day one, the solution containing receptor, tracer and TED buffer was distributed into a 96 well plate. Diluted test compound or control vehicle was then added to individual wells and the plate incubated at 4° C. overnight.
On day two, to each well was then added 20 μL human γ-globulin (ICN 823102), prepared at 25 mg/ml in TE pH 8.0, and 55 μL 40% polyethylene glycol 8000 (J T Baker U222-08), prepared in TE pH 8.0. The plate was incubated at 4° C. for 60 minutes. During incubation, the harvester was rinsed with 10% PEG 8000, prepared in TE pH 8.0, and a GF/C Unifilter-96 was pre-wet with 10% PEG. The binding reaction was filtered, the retentate was washed three times with 10% PEG and dried under vacuum for a couple of minutes, then dried at 50° C. for 5 min and the plate was bottom sealed. Next, 25 μL of Microscint-20 (Packard) was added to the filter wells and the plate was top sealed. The plate wells were then counted on a TopCount (Packard).
Counts per well were measured and IC50s determined by linear regression.

[2] = molecular target: T2, androgen receptor (rat ventral prostate cytosol) (Rattus norvegicus, UniProt P15207); experiment: Androgen Receptor Binding Using Rat Ventral Prostate Cytosol; conditions: for inhibition at 1 µM: read-out: % Inhibition, Androgen Receptor Binding (Rat Cytosol)
T2 construct: from tissue; host or cells: ventral prostate cytosol of castrated male Sprague Dawley or Wistar rats
T2 sequence (P15207 1-902): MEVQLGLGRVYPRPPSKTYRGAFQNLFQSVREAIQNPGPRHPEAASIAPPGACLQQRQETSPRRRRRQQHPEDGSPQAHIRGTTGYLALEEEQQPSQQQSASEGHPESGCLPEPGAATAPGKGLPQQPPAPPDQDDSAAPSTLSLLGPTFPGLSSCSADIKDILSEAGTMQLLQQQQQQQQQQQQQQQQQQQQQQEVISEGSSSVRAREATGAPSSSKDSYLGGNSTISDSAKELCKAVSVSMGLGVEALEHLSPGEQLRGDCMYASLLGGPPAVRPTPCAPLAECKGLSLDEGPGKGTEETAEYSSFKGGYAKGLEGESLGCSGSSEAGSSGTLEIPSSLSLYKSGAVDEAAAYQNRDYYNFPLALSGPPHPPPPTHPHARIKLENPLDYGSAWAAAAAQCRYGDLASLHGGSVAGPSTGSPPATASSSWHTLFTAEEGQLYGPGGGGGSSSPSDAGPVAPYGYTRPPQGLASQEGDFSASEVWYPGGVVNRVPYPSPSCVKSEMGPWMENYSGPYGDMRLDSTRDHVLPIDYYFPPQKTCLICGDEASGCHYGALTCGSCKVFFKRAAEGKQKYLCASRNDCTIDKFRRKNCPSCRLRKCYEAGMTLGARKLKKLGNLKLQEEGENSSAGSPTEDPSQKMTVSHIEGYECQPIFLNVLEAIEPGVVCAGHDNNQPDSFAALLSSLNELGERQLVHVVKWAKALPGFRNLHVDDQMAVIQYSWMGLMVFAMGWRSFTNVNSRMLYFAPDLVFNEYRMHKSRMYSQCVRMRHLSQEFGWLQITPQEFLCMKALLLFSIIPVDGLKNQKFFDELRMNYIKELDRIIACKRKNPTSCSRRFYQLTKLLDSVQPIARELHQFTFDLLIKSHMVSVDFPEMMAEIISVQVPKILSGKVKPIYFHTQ
How it was run: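 Cytosol from castrated rat ventral prostate was incubated overnight at 4°C with 0.5 nM [3H] tracer and compound in TED buffer (10 mM Tris-HCl pH 7.4, molybdate, EDTA, DTT, glycerol).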

[3] = read-out: IC50 (nM), Androgen Receptor Binding (Rat Cytosol)

SMILES | IC50 ([1]; [3H] R1881 tracer 0.5 nM) | inhibition at 1 µM ([2]; Concentration 1000 nM) [%] | also measured
O=C(OCc1ccccc1)N1CCC(O)(c2cc3cc(Cl)c(C(F)(F)F)cc3[nH]2)CC1 [Compound 20] | 23500 nM | -28.5 | 
CC(O)(CSc1ccc(F)cc1)c1cc2ccccc2n1S(C)(=O)=O (stereo not shown) [Compound 107] | 9400 nM | 1.5 | 
CC(O)(Sc1ccc(Cl)cc1)c1cc2cc(C#N)c(C(F)(F)F)cc2[nH]1 (racemic) [Compound 261] | 1460 nM |  | % Inhibition, Androgen Receptor Binding (Rat Cytosol) ([2]; Concentration 1000 nM): 14.05%
CC(O)(COC(=O)c1ccc(Cl)cc1)c1cc2cc([N+](=O)[O-])c(C(F)(F)F)cc2[nH]1 (stereo not shown) [Compound 55] | 715 nM and 635 nM | 5.5 | IC50 [2, 3]: 180 nM
CC(C)(C)c1ccc(C(=O)OCC(C)(O)c2cc3cc([N+](=O)[O-])c(C(F)(F)F)cc3[nH]2)cc1 (stereo not shown) [Compound 80] | 6400 nM | -24.9 | 
CC(O)(CSc1ccc(F)cc1)c1cc2cc(Cl)ccc2[nH]1 (stereo not shown) [Compound 100] | 1160 nM | 80 | 
CC(O)(CSc1ccc(Cl)cc1)c1cc2ccccc2n1S(C)(=O)=O (stereo not shown) [Compound 88] | 5150 nM | -17.4 | 
COc1ccc(C(=O)OCC(C)(O)c2cc3cc([N+](=O)[O-])c(C(F)(F)F)cc3[nH]2)cc1 (stereo not shown) [Compound 65] | 945 nM | 47.5 | 
CC(O)(CSc1ccc(Cl)cc1)c1cc2nc(C(F)(F)F)ccc2[nH]1 (racemic) [Compound 3] | 26000 nM | 6.6 | 
CC(O)(COC(=O)c1ccccc1C(F)(F)F)c1cc2cc(N)c(C(F)(F)F)cc2[nH]1 (stereo not shown) [Compound 59] |  |  | IC50 [1]: 4100 nM; IC50 [2]: 220 nM; inhibition at 1 µM [2]: 67.5%
CC(O)(COC(=O)c1ccc(Cl)cc1)c1cc2cc(C#N)c(C(F)(F)F)cc2[nH]1 (stereo not shown) [Compound 76] | 1240 nM | -30.5 | 
CC(O)(COC(=O)c1ccc(Cl)c(Cl)c1)c1cc2cc([N+](=O)[O-])c(C(F)(F)F)cc2[nH]1 (stereo not shown) [Compound 56] | 485 nM and 610 nM | 38.5 | 
CN(C)c1ccc(C(=O)OCC(C)(O)c2cc3cc([N+](=O)[O-])c(C(F)(F)F)cc3[nH]2)cc1 (stereo not shown) [Compound 67] | 3000 nM | 25.5 | 
CC(O)(CSc1ccc(F)cc1)c1cc2ccccc2[nH]1 (stereo not shown) [Compound 108] | 7000 nM | 17.5 | 
CC(O)(c1cc2cc(C#N)c(C(F)(F)F)cc2[nH]1)S(=O)(=O)c1ccc(Cl)cc1 (racemic) [Compound 262] | > 10000 nM |  | % Inhibition, Androgen Receptor Binding (Rat Cytosol) ([2]; Concentration 1000 nM): −8.4%
CC(O)(COC(=O)c1cccc(Cl)c1)c1cc2cc([N+](=O)[O-])c(C(F)(F)F)cc2[nH]1 (stereo not shown) [Compound 58] |  | 79.5 | IC50 [1]: 455 nM
CC(O)(Sc1ccccc1)c1cc2cc([N+](=O)[O-])c(C(F)(F)F)cc2[nH]1 (racemic) [Compound 258] | 2450 nM |  | % Inhibition, Androgen Receptor Binding (Rat Cytosol) ([2]; Concentration 1000 nM): 35.4%
COC(=O)c1ccc2[nH]c(C(C)(O)CSC3CCCCC3)cc2c1 (stereo not shown) [Compound 94] | 15000 nM | 21.8 | 
CC(O)(C[S+]([O-])c1ccc(Cl)c(Cl)c1)c1cc2cc(Cl)c(C(F)(F)F)cc2[nH]1 (stereo not shown) [Compound 116] | 1750 nM | 28.4 | 
CC(CO)(Sc1ccc(Cl)cc1)c1cc2cc(Cl)c(C(F)(F)F)cc2[nH]1 (racemic) [Compound 253] | 335 nM | 33.5 | 

SMILES | IC50 ([1]; [3H] R1881 tracer 0.5 nM) | inhibition at 1 µM ([2]; Concentration 1000 nM) [%] | also measured
CC(O)(CSc1ccccc1)c1cc2ccccc2n1S(C)(=O)=O (stereo not shown) [Compound 90] | > 9000 nM | -2.5 | 
CC(O)(CSc1ccccc1)c1cc2nc(C(F)(F)F)ccc2[nH]1 (racemic) [Compound 2] | 53000 nM | 2.5 | 
CC(O)(COC(=O)c1cccnc1)c1cc2cc(C#N)c(C(F)(F)F)cc2[nH]1 (stereo not shown) [Compound 79] | > 9500 nM | 48.5 | 
COC(=O)c1ccc2c(c1)cc(C(C)(O)CSc1ccccc1)n2S(C)(=O)=O (stereo not shown) [Compound 81] | 15000 nM | 5.2 | 
Cc1ccc(C(=O)OCC(C)(O)c2cc3cc([N+](=O)[O-])c(C(F)(F)F)cc3[nH]2)cc1 (stereo not shown) [Compound 69] | 1200 nM | 31 | 
COC(=O)c1ccc2c(c1)cc(C(C)(O)CSc1ccc(F)cc1)n2S(C)(=O)=O (stereo not shown) [Compound 98] | 8500 nM | -31 | 
CC(O)(CSc1ccccc1)c1cc2cc(Cl)c(C(F)(F)F)cc2[nH]1 (stereo not shown) [Compound 106] | 225 nM | 63 | IC50 [2, 3]: 300 nM
CC(O)(C[S+]([O-])c1ccc(Cl)c(Cl)c1)c1cc2cc(Cl)c(C(F)(F)F)cc2[nH]1 (stereo not shown) [Compound 117] | 2000 nM |  | % Inhibition, Androgen Receptor Binding (Rat Cytosol) ([2]; Concentration 1000 nM, 1 µM): 32.5%
CC(O)(CSc1ccccc1Cl)c1cc2cc(Cl)c(C(F)(F)F)cc2[nH]1 (stereo not shown) [Compound 84] | 180 nM | 86 | IC50 [2, 3]: 240 nM
CC(O)(CSc1ccc(Cl)c(Cl)c1)c1cc2cc([N+](=O)[O-])c(C(F)(F)F)cc2[nH]1 (stereo not shown) [Compound 87] | 350 nM and 1650 nM |  | % Inhibition, Androgen Receptor Binding (Rat Cytosol) ([2]; Concentration 1000 nM, 1 µM): 85% and 61.5%; IC50 [2, 3]: 120 nM
CC(O)(CSC1CCCCC1)c1cc2nc(C(F)(F)F)ccc2[nH]1 (racemic) [Compound 1] | 14000 nM | 22 | 
CC(O)(CSc1ccc(Cl)c(Cl)c1)c1cc2cc(Cl)c(C(F)(F)F)cc2n1S(C)(=O)=O (stereo not shown) [Compound 86] | 1250 nM | 72.5 | IC50 [2, 3]: 240 nM
CC(O)(COC(=O)c1ccc([N+](=O)[O-])cc1)c1cc2cc([N+](=O)[O-])c(C(F)(F)F)cc2[nH]1 (stereo not shown) [Compound 63] | 1550 nM | 47.5 | 
CC(O)(COC(=O)c1ccccc1C(F)(F)F)c1cc2cc(NC(=O)C(F)(F)F)c(C(F)(F)F)cc2[nH]1 (stereo not shown) [Compound 60] | 6750 nM | 44.5 | IC50 [2, 3]: > 10000 nM
CC(O)(CCl)c1cc2nc(C(F)(F)F)ccc2n1S(C)(=O)=O (stereo not shown) [Compound 4] | 7600 nM | 10.8 | 
CC(O)(COC(=O)c1ccccn1)c1cc2cc([N+](=O)[O-])c(C(F)(F)F)cc2[nH]1 (stereo not shown) [Compound 68] | 19000 nM | 36 | 
CC(O)(CSC1CCCCC1)c1cc2cc(C#N)c(C(F)(F)F)cc2[nH]1 (stereo not shown) [Compound 92] | 37000 nM | 14.7 | 
CC(O)(CSc1ccc(Cl)c(Cl)c1)c1cc2cc([N+](=O)[O-])c(C(F)(F)F)cc2n1S(C)(=O)=O (stereo not shown) [Compound 91] | 1280 nM | 36 | 
O=C(c1ccc(Cl)cc1)N1CCC(O)(c2cc3cc(Cl)c(C(F)(F)F)cc3[nH]2)CC1 [Compound 25] | 8800 nM |  | % Inhibition, Androgen Receptor Binding (Rat Cytosol) ([2]; Concentration 1000 nM): −83.5%
